This passage reports emission maximum results from the Deep4Chem optical property database.

This data set is described as follows: solvent given as SMILES.
The mark [1] stands for this setting: in O=P(c1ccccc1)(c1ccccc1)c1ccccc1Oc1ccccc1P(=O)(c1ccccc1)c1ccccc1.

“And” between values parts separate entries of the source, which are not always exact repeats. Equal entries are not always repeated.

Take `NNC(=O)N1C(=O)c2cc(S(=O)(=O)[O-])cc3c(N)c(S(=O)(=O)[O-])cc(c23)C1=O`: the emission maximum (in O) came to 535 nm.

The compound `C[Si](C)(C)C#Cc1c2c(=O)c3ccccc3c2c(C#C[Si](C)(C)C)c2c(=O)c3ccccc3c12` had an emission maximum (in ClC(Cl)Cl) of 571 nm.

As to `c1ccc(-c2c3c(cc4c2-c2ccccc2C4)-c2ccccc2C3)cc1`, the emission maximum (in C1CCCCC1) is on record as 364 nm.

Regarding `C(#Cc1ncnc2ccccc12)c1ccc(N(c2ccccc2)c2ccccc2)cc1`, the emission maximum reads like this: (in C1CCCCC1) 433 nm; (in C1CCOC1) 535 nm; (in CC#N) 610 nm; (in CS(C)=O) 616 nm; (in ClCCl) 565 nm.

With `COOCc1noc(-c2ccccc2)c1Cl`, the emission maximum (in C1CCCCC1) is 345 nm.

`COc1cc(OC)cc(-c2ccc(C3=CC(c4ccccc4)=C(c4ccccc4)C3)cc2)c1` came in with an emission maximum (in ClCCl) of 455 nm.

Compound `CCOC(=O)c1c(-c2c(Cl)c3ccccc3oc2=O)nn(-c2ccc(Br)cc2)c1C(=O)OCC` gave an emission maximum (in ClCCl) of 406 nm.

Consider `c1ccc(N(c2ccccc2)c2c3ccccc3cc3ccccc23)cc1`, for which the emission maximum (in Cc1ccccc1) came to 489 nm.

In turn, `C=C(C)C(CN1C(=O)c2cccc3c2c(cc2oc(C)nc23)C1=O)OO` (centres undefined) showed an emission maximum (in CCO) of 416 nm.

Regarding `COc1ccc(N(c2ccc(OC)cc2)c2ccc(-c3ccc4c(c3)C(=O)c3ccccc3C4=O)cc2)cc1`, the emission maximum is, setting by setting: (in CCCCCC) 571 nm; (in CCOCC) 720 nm; (in Cc1ccccc1) 679 nm; (in ClC(Cl)(Cl)Cl) 646 nm.

`Cc1cccc2ccccc12` came in with an emission maximum (in C1CCCCC1) of 339.9 nm.

Take `COc1cc(/C=C/c2cc[n+](Cc3ccc(Br)cc3)cc2)ccc1O`: the emission maximum runs as follows: (in CC#N) 557 nm; (in CC(C)=O) 562 nm; (in CC(C)CO) 556 nm; (in CC(C)O) 559 nm; (in CCC#N) 559 nm; (in CCCCCCO) 553 nm. Further, the emission maximum is 554 nm (in CCCCCO); 558 nm (in CCCCO); 559 nm (in CCCO); 564 nm (in CCO); 565 nm (in CN(C)C=O); 567 nm (in CN(C)P(=O)(N(C)C)N(C)C). Besides, the emission maximum is, setting by setting: (in CO) 566 nm; (in CS(C)=O) 568 nm.

On to `O=S(=O)([O-])c1cc([O-])c2ccc3c(S(=O)(=O)[O-])cc(S(=O)(=O)[O-])c4ccc1c2c34`, for which the emission maximum runs as follows: (in CC#N) 513 nm; (in CC(C)O) 511.01 nm; (in CCO) 510 nm; (in CO) 509.01 nm; (in NC=O) 519 nm; (in O) 511.01 nm. The emission maximum was determined as 506 nm (in OC(C(F)(F)F)C(F)(F)F), 508 nm (in OCC(F)(F)F) and 512.01 nm (in OCCO).

On to `Cn1c(-c2ccc(-c3nc(-c4ccccc4)c(-c4ccccc4)n3C)cc2)nc(-c2ccccc2)c1-c1ccccc1`, for which the emission maximum (in CC#N) was 440 nm and 417 nm.

Compound `N#Cc1c(/C=C/c2ccc(N(c3ccccc3)c3ccccc3)cc2)cc(-c2ccccc2)cc1N1CCCCC1` displayed an emission maximum (in CS(C)=O) of 520 nm.

As for `COC(=O)c1ccc(NC(=O)c2ccc(N(C)C)cc2)cc1`, the emission maximum is, setting by setting: (in C1CCCCC1) 434 nm; (in C1CCOC1) 470 nm; (in CC#N) 516 nm; (in CCOCC) 456 nm.

On to `CCOC(=O)c1ccc(C2CC(c3cccc4ccccc34)=NN2c2ccc(F)cc2)cc1` (centres undefined), for which, under “in ClCCl”, the emission maximum was determined as 481 nm.

Compound `Cc1cccn2c1cc1c3ccccc3nc(-c3ccco3)c12` showed an emission maximum (in CS(C)=O) of 502 nm.

Under “in ClCCl”, `C[Si]1(C)c2ccc(-c3ccc(-c4cccs4)s3)cc2C=Cc2cc(-c3ccc(-c4cccs4)s3)ccc21` displayed an emission maximum of 424 nm.

With `N#Cc1c(N2CCCCC2)cc(-c2cccs2)c2c1-c1cccc3cccc-2c13`, the emission maximum (in O) came out at 555 nm.

Turning to `CCOC(=O)C1=CN(c2ccccc2)C=CC1c1ccccc1` (centres undefined), the emission maximum is, setting by setting: (in C1CCOC1) 419 nm; (in CO) 442 nm.

`N#Cc1ccc(C=C2Oc3cccc(O)c3C2=O)cc1`: the emission maximum (in CC#N) is given as 510 nm.

Consider `CNc1ccc(/C=C/C#N)cc1`, for which the emission maximum by setting is: (in C1CCCCC1) 368 nm; (in C1CCOC1) 419 nm; (in C1COCCO1) 399 nm; (in CC1CCCCC1) 391 nm; (in CC#N) 421 nm; (in CC(C)O) 408 nm. Further, the emission maximum worked out at 414 nm (in CCO), 423 nm (in CO), 404 nm (in ClC(Cl)Cl) and 445 nm (in O).

For `Cc1cccc(C)c1-c1cc2c(C)c3c4cc5nc6ccc7c8c(C)c9cc(-c%10c(C)cccc%10C)c(-c%10c(C)cccc%10C)cc9c(C)c8c7c6nc5cc4c3c(C)c2cc1-c1c(C)cccc1C`, where the note is “in ClC(Cl)Cl”, the emission maximum is 576 nm.

In turn, `CCCCCCN1C(=O)c2cccc3c(-c4ccc(-c5ccc(-c6ccc7c8c(cccc68)C(=O)N(CCCCCC)C7=O)s5)s4)ccc(c23)C1=O` had an emission maximum (in ClC(Cl)Cl) of 542 nm.

As for `O=C([O-])c1c(Cl)c(Cl)c(Cl)c(Cl)c1-c1c2cc(I)c(=O)c(I)c-2oc2c(I)c([O-])c(I)cc12`, the emission maximum runs as follows: (in CC(C)O) 576 nm; (in CCO) 573 nm; (in CO) 571 nm; (in O) 566 nm.

As for `O=C1C=Cc2cc3ccccc3c(=O)n21`, the emission maximum by setting is: (in CC#N) 410 nm; (in CO) 450 nm; (in CS(C)=O) 420 nm; (in ClC(Cl)Cl) 410 nm.

On to `COC(=O)c1ccccc1-c1c2ccc(=[NH2+])cc-2oc2cc(N)ccc12`, for which the emission maximum was 525 nm (in CC#N), 529 nm (in CCO), 538 nm (in CN(C)C=O) and 527 nm (in O).

`CCOC(=O)c1cc(C(=O)OCC)c2ccc(N(C)C)cc2n1` had an emission maximum (in CCO) of 541 nm.

Consider `COc1cc(/C=C/C(=O)CC(=O)/C=C/c2ccc(O)c(OC)c2)ccc1O`, for which the emission maximum was 446 nm (in C1CCCCC1); 538 nm (in CC#N); 542 nm (in CN(C)C=O); 560 nm (in CO); 549 nm (in CS(C)=O); 464 nm (in c1ccccc1).

The compound `COc1ccc2cc(-c3cccc(-c4cc5ccc(OC)cc5oc4=O)c3)c(=O)oc2c1` gave an emission maximum (in ClC(Cl)Cl) of 426 nm.

`COc1ccc(-c2nnc(-c3cc(-c4nnc(-c5ccc(OC)cc5)o4)c(-n4c5ccccc5c5ccccc54)cc3-n3c4ccccc4c4ccccc43)o2)cc1`: the emission maximum reads like this: (in Cc1ccccc1) 428 nm; under setting [1], 452 nm.

Compound `CCc1ccc2ccc(-c3ccccc3)nn12` came in with an emission maximum (in CCCCCC) of 495 nm.

Consider `CC(C)(C)c1ccc(-c2c(-c3ccc(-n4c5ccccc5c5ccccc54)cc3)cc(-c3ccc(-n4c5ccccc5c5ccccc54)cc3)c(-c3ccc(C(C)(C)C)cc3)c2-c2ccc(C(C)(C)C)cc2)cc1`, for which the emission maximum (in C1CCOC1) was determined as 367 nm.

As for `c1ccc(-c2nc(-c3ccccc3)nc(-c3ccc(-n4c5ccccc5c5cc6c(cc54)C4c5ccccc5C6c5ccccc54)cc3)n2)cc1`, the emission maximum runs as follows: (in Cc1ccccc1) 432 nm; under setting [1], 457 nm.

Consider `O=C1C2=C(O[B-](F)(F)[n+]3c2ccc2ccccc23)c2cccc3c(N4CCOCC4)ccc1c23`, for which the emission maximum by setting is: (in C1CCOC1) 596 nm; (in CC#N) 620 nm; (in CCO) 584 nm; (in CO) 564 nm; (in ClCCl) 588 nm.

For the compound `O=P1(c2ccccc2)C2=C(c3ccccc31)[Si](c1ccccc1)(c1ccccc1)c1cc(N(c3ccccc3)c3ccccc3)ccc12` (centres undefined), the emission maximum came to 629 nm (in CC#N), 640 nm (in CO) and 558 nm (in Cc1ccccc1).

Take `CCN(CC)c1ccc2cc(/C=C/C3=C4CC/C(=C\c5cc6ccc(N(CC)CC)cc6oc5=O)C4=[O+][B-](F)(F)O3)c(=O)oc2c1`: the emission maximum reads like this: (in C1COCCO1) 675 nm; (in CC#N) 758 nm; (in CC(C)=O) 734 nm; (in CCOC(C)=O) 693 nm; (in CN(C)C=O) 758 nm; (in CS(C)=O) 780 nm. This compound registered an emission maximum (in Cc1ccccc1) of 658 nm, an emission maximum (in ClC(Cl)Cl) of 706 nm and an emission maximum (in ClCCl) of 730 nm.

`CCn1c2ccccc2c2cc(-c3cc(-c4ccc5c(c4)c4ccccc4n5CC)nc(SC)n3)ccc21` showed an emission maximum (in C1CCOC1) of 394 nm; an emission maximum (in CCOC(C)=O) of 392 nm; an emission maximum (in CN(C)C=O) of 421 nm; an emission maximum (in Cc1ccccc1) of 387 nm; an emission maximum (in ClCCl) of 411 nm.

The compound `COC(=O)C[C@H](Cc1c[nH]c2ccccc12)NC(=O)[C@H](CC(=O)N[C@@H](CC1=CCc2ccccc21)C(=O)OC)NC(=O)[C@H](Cc1c[nH]c2ccccc12)NC(=O)OC(C)(C)C` had an emission maximum (in CC#N) of 334 nm, an emission maximum (in CCOC(C)=O) of 330 nm and an emission maximum (in CO) of 338 nm.

In turn, `COc1cc2cc(OC)c(-c3ccc([N+](=O)[O-])cc3)cc2cc1-c1ccc([N+](=O)[O-])cc1` showed an emission maximum (in ClC(Cl)Cl) of 544 nm and an emission maximum (in ClCCl) of 578 nm.

As for `COc1cc2cc(-c3cc4cc(OC)c(OC)cc4oc3=O)oc2cc1OC`, the emission maximum by setting is: (in CC#N) 493 nm; (in CCOC(C)=O) 478 nm; (in CS(C)=O) 500 nm; (in Cc1ccccc1) 475 nm; (in O) 435 nm.
